We go through two compounds from patent US7115708B2 (priority 2001, dated 2006).

Series [1] deals with MIA PaCa-2.
For series [2], the system named is MCF-7.
Series [3] concerns MIA PaCa-2. Nature of the series: cells. The following applies: Homo sapiens, MIA PaCa-2, read-out: Estimated IC50 (50% Inhibition Concentration).
Series [4] has as its system MCF-7. In words: cells. The conditions noted are these: Homo sapiens, MCF7, read-out: Estimated IC50 (50% Inhibition Concentration).
The test system of another series is tumor patients. The conditions noted are these: in vivo; cited from earlier work.

Take `CO[C@@]12[C@H](COC(N)=O)C3=C(C(=O)C(C)=C(N)C3=O)N1C[C@@H]1N[C@@H]12` [Mitomycin]: the “Estimated TGI (Total Growth Inhibition)” value in the series on MIA PaCa-2 [1] was 150 nM; in the series with MCF-7 [2], 180 nM. Moreover, the IC50 in the series with MIA PaCa-2 [3] is 28 nM; with MCF-7 [4] it was 35 nM.

Consider ^90Y-DOTA-lanreotide, for which, in the series on tumor patients, the “patients with stable tumor disease” value is given as “roughly 35%”, the toxicity reported entry is “No acute or chronic severe hematological toxicity” and the “tumor patients with regressive disease” value was 15%.
